From US7074925B1, “N-substituted derivatives of 5-oxyiminobarbituric acid” (priority 1998, dated 2006)
Converted amounts (≈) assume the structure as drawn.

Columns and labels:
[1] = test system: Mycobacterium smegmatis ATCC607; test: Antimicrobial action by serial dilution (MIC), M. smegmatis; type: cell-based; details: for MIC: Mycolicibacterium smegmatis, ATCC607, M. smegmatis ATCC 607, medium N-1, 72-hour cultivation at 37° C.
[2] = test system: Mycobacterium tuberculosis H37RV; test: Antimicrobial action by serial dilution (MIC), M. tuberculosis; type: cell-based; details: Soton medium with 10% horse serum, 72-hour cultivation at 37° C.; for MIC: Mycobacterium tuberculosis
[3] = Antioxidant action, riboflavine chemiluminescence; type: biochemical; details: solvent water, phosphate buffer pH 9.1
Text: To assess a general antioxidant activity the method of riboflavine chemiluminescence was used. The test substance was introduced into a system consisted of phosphate buffer (pH 9.1), solution of riboflavine, and solution of bivalent iron sulfate. Chemiluminescence was initiated by 0.1% solution of hydrogen peroxide and registered by means of luminometer. […] Ascorbic acid was used as a reference agent.

[4] = Analgesic activity, tail withdrawal from radiant heat; type: in vivo, mice
Protocol: The time needed to draw back a tail placed under a directed source of radiant heat was estimated in a group of 3 mice. Prolongation of the response time by more than 50% after intraperitoneal dosing a substance (30 mg/kg) indicated analgesic activity. Morphine sulfate (2 mg/kg) was utilized as a reference agent.

[5] = Hepatoprotective activity, CCl4 liver damage (AlAT); type: in vivo, rats; details: for AlAT: 20 mg/kg perorally 30 minutes before and 7 hours after CCl4, 24 hours, CCl4 control 0.83 ± 0.21, intact 0.27 ± 0.04; for % of reducing AlAT: 20 mg/kg perorally, relative to CCl4 control
Protocol: CCl4 dissolved in 50% olive oil (1 ml/kg) was subcutaneously administrated to rats. Test substances were administrated perorally in a dose of 20 mg/kg 30 minutes before and 7 hours after the CCL4 administration. The activity of alanine-aminotranspherase (AlAT), which is a marker enzyme of liver parenchyma damage, was assessed twenty-four hours later. Reducing of enzyme amount by more than 30% relative to the control group was considered as evidence of hepatoprotective properties of the substance.
Silymarin in a dose of 100 mg/kg was used as a reference agent.

[6] = test system: Human's platelet aggregation; test: Antiaggregational properties, ADP-induced platelet aggregation; type: cell-based; details: 100 μg/ml, ADP […], platelet-enriched human plasma
Text: Human's platelet aggregation was investigated in plasma of healthy 50±3 years donors that was enriched by thrombocytes, by means of aggregometer FRM-1. […] Magnitude of a maximum non-reversible platelet aggregation in the control samples (solvent) was adopted as 100%, and that in tested samples was counted as the percentage compared to the control.

[7] = Antiulcerous action, water immersion stress with immobilization; type: in vivo, rats; details: 20 mg/kg perorally
Protocol: Antiulcerous activity of substances was tested on a model of experimental water immersion stress with immobilization. […] After that, gastric mucous membrane was investigated, number and sizes of ulcers were counted, ulceration index was determined (an average sum of ulcer lengths per one animal in a group).

[8] = Hypoglycemic activity after glucose load; type: in vivo, mice; details: 100 mg/kg perorally, glucose 1000 mg/kg s.c.
Protocol: Test substance (100 mg/kg) was perorally administrated to fasted mice, and, immediately after that, solution of glucose (1000 mg/kg) was administrated subcutaneously. Glucose content in blood was determined in a hour by the orthotoluidine method. Reducing of glucose level by more than 20% relative to control animals indicated hypoglycemic properties. Glibenclamide (I mg/kg) was utilized as a reference agent.

[9] = test system: primary culture of human lymphocytes (IFN-α production); test: Interferon-inducing activity in primary culture of human lymphocytes; type: cell-based
Protocol: Interferon synthesis induction caused by the claimed compounds was conducted on a primary culture of human lymphocytes (it is these cells in a human organism that are the main producers of interferons). To obtain lymphocyte culture, fresh blood (within 12 hours after sampling) from healthy donors (not of group II) was used. To separate lymphocytes, heparinized blood obtained from healthy donor was centrifuged in a density gradient of ficoll-verografin of […] in order to extract a fraction of immunocompetent cells. This fraction was selected and diluted with the nutrient medium RPMI-1640, containing 5% of fetal calf serum, 0.3 mg/ml of L-glutamin, 100 un/ml of penicillin, and […] of streptomycin. The concentration of lymphocytes was considered after dying them with methylene blue and calculation of cell number in Goryaev chamber. Initial solutions of the claimed compounds were diluted with the nutrient medium RPMI-1640 so that the final concentrations of the compounds, which were obtained after introduction of lymphocyte suspension, constituted the raw: 100 μg/ml, 10 μg/ml, 1 μg/ml. The final concentration of lymphocytes in the induction mixture was 3×10^6 cell/ml.
In parallels to the test samples the following controls were done: • 1). Control of spontaneous production of interferons (IFN) by lymphocytes. • 2). […] Control of spontaneous production of interferons in presence of DMSO taken in an amount corresponding to the test samples.
Control and test samples were incubated for 24 hours at the temperature of 37° C. After incubation, the samples were centrifuged at 2,000 G to deposit cell elements, and IFN-containing supernatant was separate out of samples; then the supernatant was analyzed for the quantitative content of IFN. Cell deposition was resuspended in the previous volume of nutrient medium, coloured with vital dye trypan blue, and cell number was counted in the Goryaev chamber (as described above) to determine cytotoxic action of the compounds. The quantitative determination of content of IFN in control and test samples was conducted using the immunoenzyme test system Pro Con IF2 Plus, that is intended for determination of IFN-α, which is produced by TOO “Protein contour”. The solid-phase immunoenzyme method, utilizing horse radish peroxidase as an indicator enzyme, was used to determine the quantity of interferon in the samples. Activity of the bonded peroxidase was measured using an automatic photometer for microplates with a microprocessor at the wavelength of 450 nm.
Based on the obtained results, a calibrating curve was formed, which allows to obtain data expressed in international units (IU) of activity, using the microprocessor of the automatic photometer. The results of the analysis are expressed in IU of activity of IFN per ml in the given induction system, which contains 3×10^4 lymphocyte/ml. Each test and control point was investigated in four parallels.
Controls of immunoenzyme reaction: • 1. Control of DMSO with a nutrient medium. • 2. Control of system components (according to an instruction).
The obtained data were undergone a statistical analysis using t-criterion, and calculation of the confident interval of probability at p=0.05 was carried out. Coincidence of results in the parallel tests was analyzed.

[10] = Psychodepressive activity, behavioral score; type: in vivo, mice; details: per oral 300 mg/kg, one hour after dosing; total 60, less than 40 significant
Protocol: Each parameter scores 2 points for an each mouse that had unchanged behavior. The total point sum was 60 (2×10×3 mice). Reducing score to less than 40 one hour after dosing with a substance per oral (300 mg/kg) denoted significant behavioral depression. Haloperidol was utilized as a reference agent.

[11] = Determination of maximal tolerable dose; type: in vivo; details: oral administration, mice, observed 72 hours; 300 was the maximally utilized one
Protocol: Tested substance was introduced perorally (in dose of 300 mg/kg) through a gastric tube or intraperitoneally (in dose of 100 mg/kg) to no-breed white mice with mass 18-20 g (each tested group consisted of 3 males and 3 females). Then the mouse state was observed during 72 hours. Absence of symptoms characteristic of toxic effects, or absence of animal death during the given time allows to make a conclusion that the toxicity of the test substance is low. If acute toxicity effects are observed, the dose is reduced to find maximal tolerable dose.

[12] = test system: Herpes virus of the type I (HSV-I/Leningrad/248/88); test: Effect on Herpes virus, cytopathogenic action on Vero cells; type: cell-based, Herpes Simplex virus; details: compound 100 μg/ml
Protocol: An antiviral activity was determined with respect to Herpes virus of the type I (HSV-I/Leningrad/248/88) by means of commonly accepted method. Viruses were grown on a continuous culture of Vero cells that have been received from the Bank of Cell Cultures of the Institute of Cytology of the Russian Academy of Science.
A virus in a final concentration of […] and the claimed compounds dissolved in DMSO in final concentrations of 100, 10 and 1 mg/l were added to cells that were grown on the RPMI-1640 medium with 10% fetal calf serum and placed into wells of the 96-well plate. 5 separate wells were used for each of tested concentrations of an agent. The plate was incubated during 60 minutes at 38° C. in a CO2-incubator. After the incubation, the virus was removed and then a fresh medium containing claimed compounds in used concentrations was again introduced.
Results were evaluated basing on presence of cytopathogenic action on the cells after 36 hours of incubation at 38° C. in the CO2-incubator.
The next controls were used in the experiment: • 1. Control of cell culture (capability to grow properly) • 2. Control of the virus (evaluation of capability for reproduction) • 3. Control of an antiviral activity of an antiviral drug Acyclovir • 4. Control of compounds (toxicity of compounds) • 5. Control of a solvent (DMSO) for toxicity.
To estimate a cytopathic action of the virus, a quantity of the unchanged cells was calculated in 100 visual fields formed by a special net of an eyepiece of the inverted microscope.

CC[C@@H](CO)NCCN[C@@H](CC)CO [Ethambutol]
MIC [1]: 5 µg/mL (≈ 24.5 µM) | MIC [2]: 5 µg/mL (≈ 24.5 µM)

[H]/N=C(/N)N[C@H]1[C@H](O)[C@@H](O)[C@H](O[C@@H]2O[C@@H](C)[C@](O)(C=O)[C@H]2O[C@@H]2O[C@@H](CO)[C@H](O)[C@@H](O)[C@@H]2NC)[C@@H](N/C(N)=N\[H])[C@@H]1O [Streptomycin]
MIC [1]: 0.15 µg/mL (≈ 0.258 µM) | MIC [2]: 0.2 µg/mL (≈ 0.344 µM)

NNC(=O)c1ccncc1 [Isoniazid]
MIC [1]: 1.5 µg/mL (≈ 10.9 µM) | MIC [2]: 0.1 µg/mL (≈ 0.729 µM)

O=C1O[C@H]([C@@H](O)CO)C(O)=C1O [Ascorbic acid, reference compound]
IC50, suppressing chemiluminescence by 50% [3]: 2.39 µg/mL (≈ 13.6 µM)

CN1CC[C@]23c4c5ccc(O)c4O[C@H]2[C@@H](O)C=C[C@H]3[C@H]1C5.O=S(=O)(O)O [Morphine, Morphine sulfate, reference compound]
Latent period of response, before dosing ([4]; before morphine sulfate 2 mg/kg): 8.3 | Latent period of response, 30 minutes after dosing ([4]; morphine sulfate 2 mg/kg): 14.6

O=C1NC(=O)N(C2CCCCC2)C(=O)C1=NO [VIII]
AlAT [5]: 0.48 ± 0.19 mmol/L/h | % of reducing AlAT [5]: −42% | % of inhibition of platelet aggregation [6]: 68.9 ± 5.3% | % of animals with ulcers ([7]; rats, 4 hours stress, control 100): 100% | % of reducing number of ulcers ([7]; versus control): −64% | % of reducing ulceration index ([7]; versus control): −35% | Number of lesions ([7]; control 8.3 ± 2.5): 3.0 ± 1.3 | ulceration index ([7]; control 10.5 ± 5.7): 6.8 ± 4.4 | % change of glucose relative to glucose control [8]: −18% | Glucose in blood ([8]; after one hour, glucose control 8.26 ± 0.50): 6.77 ± 0.61 mmol/L

CN1C(=O)C(=NO)C(=O)N(C)C1=S [XL]
MIC, M. smegmatis [1]: 3.1 µg/mL (≈ 15.4 µM) | MIC, M. tuberculosis [2]: 12.5 µg/mL (≈ 62.1 µM) | Content of IFN in induction mixture after 24-hour incubation ([9]; substance 1 mg/l): 5.1 ± 1.0 IU/3 × 10^4 lymph./ml | Content of IFN in induction mixture after 24-hour incubation ([9]; substance 10 mg/l): 11.3 ± 1.5 IU/3 × 10^4 lymph./ml | Content of IFN in induction mixture after 24-hour incubation ([9]; substance 100 mg/l): 22.8 ± 1.0 IU/3 × 10^4 lymph./ml

CC1COc2c(N3CCN(C)CC3)c(F)cc3c(=O)c(C(=O)O)cn1c23 (stereo not shown) [Ofloxacin]
MIC [1]: 0.5 µg/mL (≈ 1.38 µM) | MIC [2]: 0.5 µg/mL (≈ 1.38 µM)

O=C1NC(=O)N(c2ccc(Br)cc2)C(=O)C1=NO [XXIX]
AlAT [5]: 0.40 ± 0.04 mmol/L/h | % of reducing AlAT [5]: −52% | % of inhibition of platelet aggregation [6]: 16.4 ± 3.1% | Point number (behavioral depression) [10]: 32 | Maximal tolerable dose, concentration of test substances [11]: 300 mg/kg | Quantity of the unchanged cells (number of cells in 100 visual fields) ([12]; Vero cells, 36 hours, cell control 10000): 3000 | percentage of protection of cells from virus ([12]; compared to the control of cell culture): (30%)

O=C1NC(=O)N(c2cccc(F)c2)C(=O)C1=NO [XXVI]
Maximal tolerable dose, concentration of test substances [11]: 300 mg/kg

O=C(CCCN1CCC(O)(c2ccc(Cl)cc2)CC1)c1ccc(F)cc1 [Haloperidol, reference compound]
Point number (behavioral depression) [10]: 27

CO[C@H]1/C=C/O[C@@]2(C)Oc3c(C)c(O)c4c(O)c(cc(O)c4c3C2=O)NC(=O)/C(C)=C\C=C\[C@H](C)[C@H](O)[C@@H](C)[C@@H](O)[C@@H](C)[C@H](OC(C)=O)[C@@H]1C [Rifamycin]
MIC [1]: 0.25 µg/mL (≈ 0.358 µM) | MIC [2]: 0.05 µg/mL (≈ 0.0717 µM)
